# Experimental data: patent publication US20080199485A1 (priority 2007, published 2008)
# Entries after “also recorded” stand apart in the source; their conditions may differ.
# Assays:
# [1] = system: TCR-transgenic gp33-specific T cells; assay type: cell-based, mouse
# [2] = system: EL-4 cells pulsed with gp33 peptide; assay type: cell-based, mouse
sequence,measurement,setting,value
KAVYNFATM [gp33],IFN-γ production,[1],transiently produced at an early stage
same,IFN-γ secretion,[1],higher amounts of IFN-gamma
same,IL-10 production,[1],high amounts of IL-10 with an earlier onset
same,CTL response,[2],strongest CTL response; also recorded: weaker CTL responses
